Earlier results, collected in US20150182553A1, “USE OF POLYMER D-LACTIC ACID (PDLA) TO TREAT MALARIA” (priority 2013, published 2015).

Columns and labels:
[1] = test system: mitochondrial respiration of L-lactate; details: brain and heart
[2] = metabolite of PDLA

Question: With `C[C@@H](O)C(=O)O` [D-lactic acid] as the molecule, how does the “effect on mitochondrial respiration of L-lactate” value [1] read?
Answer: Its value is “block mitochondrial respiration of L-lactate in the brain and heart”.

Question: And the “average plasma concentration that may be related to reversible symptoms of altered mental status, dysarthria, and ataxia” value [2]?
Answer: The value was 7.98 mM.
